According to the supplement of paper PMC10307832:

Tests used:
Assay in all cases: relative viability (nuclei count vs DMSO), 5 days (fraction); higher = more cells survive
KIN001-266 + Palbociclib = compound: CCN1CCC(CC1)N2C=C(N=N2)CNC3=CC4=C(C(=CN=C4C(=C3)Cl)C#N)NC5=CC(=C(C=C5)F)Cl [KIN001-266] + CC(=O)c1c(C)c2cnc(Nc3ccc(N4CCNCC4)cn3)nc2n(C2CCCC2)c1=O [Palbociclib] (partner 0.5 µM)
How it was run: (§1)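 Nuclei were stained with Hoechst during a one-step fixation (final 0.05% Triton X-100, 1% formaldehyde, 1 ug/ml Hoechst) carried out 5 days after dosing, then counted on 4× images. The cells, lung cancer lines in 1536-well plates, had been dosed by pin tool the day after seeding with one drug alone or a fixed anchor-drug dose plus five library-drug doses (not always all listed) in √10 steps. Relative viability is the nuclei count in treated wells divided by that in vehicle wells, and each value is the median of duplicate plates.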

KIN001-266 + Alpelisib = compound: CCN1CCC(CC1)N2C=C(N=N2)CNC3=CC4=C(C(=CN=C4C(=C3)Cl)C#N)NC5=CC(=C(C=C5)F)Cl [KIN001-266] + Cc1nc(NC(=O)N2CCC[C@H]2C(N)=O)sc1-c1ccnc(C(C)(C)C(F)(F)F)c1 [Alpelisib] (partner 2 µM)
How it was run: as §1

KIN001-266 + Pemetrexed = compound: CCN1CCC(CC1)N2C=C(N=N2)CNC3=CC4=C(C(=CN=C4C(=C3)Cl)C#N)NC5=CC(=C(C=C5)F)Cl [KIN001-266] + Nc1nc2[nH]cc(CCc3ccc(C(=O)N[C@@H](CCC(=O)O)C(=O)O)cc3)c2c(=O)[nH]1 [Pemetrexed] (partner 0.2 µM)
How it was run: as §1

KIN001-266 + Olaparib = compound: CCN1CCC(CC1)N2C=C(N=N2)CNC3=CC4=C(C(=CN=C4C(=C3)Cl)C#N)NC5=CC(=C(C=C5)F)Cl [KIN001-266] + O=C(c1cc(Cc2n[nH]c(=O)c3ccccc23)ccc1F)N1CCN(C(=O)C2CC2)CC1 [Olaparib] (partner 8 µM)
How it was run: as §1

Cell Line	relative viability (KIN001-266 + Palbociclib; first compound 0.08 µM)	relative viability (KIN001-266 + Palbociclib; first compound 0.253 µM)	relative viability (KIN001-266 + Palbociclib; first compound 0.8 µM)	relative viability (KIN001-266 + Palbociclib; first compound 2.53 µM)	relative viability (KIN001-266 + Palbociclib; first compound 8 µM)	relative viability (KIN001-266 + Alpelisib; first compound 0.08 µM)	relative viability (KIN001-266 + Alpelisib; first compound 0.253 µM)	relative viability (KIN001-266 + Alpelisib; first compound 0.8 µM)	relative viability (KIN001-266 + Alpelisib; first compound 2.53 µM)	relative viability (KIN001-266 + Alpelisib; first compound 8 µM)	relative viability (KIN001-266 + Pemetrexed; first compound 0.08 µM)	relative viability (KIN001-266 + Pemetrexed; first compound 0.253 µM)	relative viability (KIN001-266 + Pemetrexed; first compound 0.8 µM)	relative viability (KIN001-266 + Pemetrexed; first compound 2.53 µM)	relative viability (KIN001-266 + Pemetrexed; first compound 8 µM)	relative viability (KIN001-266 + Olaparib; first compound 0.08 µM)	relative viability (KIN001-266 + Olaparib; first compound 0.253 µM)	relative viability (KIN001-266 + Olaparib; first compound 0.8 µM)	relative viability (KIN001-266 + Olaparib; first compound 2.53 µM)	relative viability (KIN001-266 + Olaparib; first compound 8 µM)
LC-2-ad	0.535	0.527	0.484	0.499	0.478	0.897	0.776	0.918	0.783	0.869	0.288	0.301	0.272	0.271	0.275	0.706	0.727	0.664	0.693	0.635
LCLC-97TM1	0.201	0.233	0.216		0.235	0.268	0.217	0.236	0.222	0.236	0.193	0.191	0.171		0.227	0.302	0.295	0.406		0.167
LCLC-103H	0.453	0.492	0.466	0.456	0.433	0.906	0.975	0.951	0.972	0.808	0.471	0.482	0.47	0.426	0.514	0.727	0.762	0.722	0.742	0.756
LK-2	0.794	0.691	0.797	0.589	0.67	1.3		1.17		1.11	0.275	0.237	0.211	0.158	0.273	0.879	0.689	0.672	0.557	0.574
LOU-NH91	0.526	0.544	0.509	0.525	0.53	0.735	0.724	0.501	0.676	0.588	0.369	0.392	0.385	0.378	0.425	0.909	0.903	0.761	0.842	0.757
LU99A	0.441	0.413	0.358	0.373	0.364	0.66	0.606	0.442	0.438	0.442	0.168	0.172	0.124	0.182	0.217	0.271	0.283	0.2	0.213	0.164
LXF-289	0.589	0.618	0.596	0.606	0.629	1.05	1.03	1.01	1.05	1.03	0.839	0.861	0.855	0.771	1.01	1.01	1.02	1.03	1.01	1.03
NCI-H23	0.46	0.423	0.522	0.532	0.402	0.768	0.646	0.733	0.663	0.695	0.627	0.634	0.658	0.643	0.596	0.334	0.303	0.321	0.309	0.251
NCI-H322M	0.455	0.479	0.477	0.387	0.448	0.648	0.87	0.8	0.694	0.689	0.598	0.611	0.628	0.461	0.666	0.802	0.737	0.764	0.72	0.698
NCI-H358	0.138	0.126	0.137	0.133	0.171	0.825	0.774	0.981	0.831	0.43	0.187	0.163	0.178	0.158	0.146	0.6	0.556	0.58	0.458	0.325
NCI-H441	0.294	0.223	0.217	0.22	0.259	0.75	0.822	0.73	0.793	0.496	0.251	0.253	0.233	0.261	0.248	0.504	0.645	0.562	0.455	0.444
NCI-H460	0.175	0.161	0.263	0.176	0.153	0.609	0.581	0.484	0.485	0.413	0.06	0.0695	0.065	0.0681	0.0901	0.418	0.447	0.466	0.308	0.409
NCI-H520	0.23	0.236	0.243	0.165	0.237	0.817	0.929	1.08	0.646	0.801	0.709	0.714	0.671	0.565	0.65	0.339	0.299	0.374	0.267	0.239
NCI-H647	0.432	0.399	0.428	0.479	0.351	1.29	1.3	1.11	1.11	0.928	0.195	0.216	0.181	0.158	0.198	0.565	0.516	0.701	0.501	0.301
NCI-H650	0.375	0.361	0.357	0.363	0.413	1.12	1.08	1.33	1.09	1.14	1.15	0.988	1.09	1.02	0.946	0.452	0.381	0.349	0.336	0.34
